Nine molecules from patent US20090215029A1, “METHODS OF ISOLATING AND PURIFYING NUCLEIC ACID-BINDING BIOMOLECULES AND COMPOSITIONS INCLUDING SAME” (CytoCure, Inc., priority 2007, published 2009) can be followed below.

Read-outs that look alike come from different tables or passages of the source.

Assay [1] deals with nucleic acids to a bound factor. Nature of the assay: Cross-linking / fixative activity: effectiveness in covalently linking nucleic acids to a bound factor. In kind it is biochemical. Here is the method: Several cross-linking fixatives incorporating a nucleic acid binding group covalently coupled with a primary amine-binding group were synthesized. These agents were assayed to determine effectiveness covalently linking nucleic acids to a bound factor.

Assay [2] relates to whole cells. Description: Combination crosslinking, first and second agents added to whole cells. In kind it is cell-based. To be noted: combination with second agent EGS (amine binding); both added more or less simultaneously to whole cells, not less than 30 minutes, room temperature to 37 Celsius.
Experimental: Note: For Combination crosslinking experiments, both the First and Second agents are added more or less simultaneously to whole cells (ethidium bromide requires prior membrane permeabilization) for not less than 30 minutes at room temperature to 37 Celsius.

Turning to “2,5-dioxopyrrolidin-1-yl-2-(4-(3-methylthioureido)-4-oxobutanoyloxy)ethyl succinate chloro(ethylenediamine)platinum(II) complex”, the Activity result in assay [1] is given as “Some”.
For the molecule `C1OC1C1CO1` (stereo not drawn) [1,3 butadiene diepoxide], the “Activity as fixative agent” value in assay [1] was “some activity”.
As to `Cc1oc2c(C)c3oc(=O)cc(C)c3cc2c1CN` [4-aminomethyl trioxsalen], the Activity entry in assay [2] is given as “Weak”.
As to `O=C(CCC(=O)OCCOC(=O)CCC(=O)ON1C(=O)CCC1=O)NC(Cc1ccc(N(CCCl)CCCl)cc1)C(=O)O` (stereo not drawn) [A, 3-(4-(bis(2-chloroethyl)amino)phenyl)-2-(4-(2-(4-(2,5-dioxopyrrolidin-1-yloxy)-4-oxobutanoyloxy)ethoxy)-4-oxobutanamido)propanoic acid], in assay [1], the Activity entry was “Strong”.
In the case of `CC[n+]1c(-c2ccccc2)c2cc(N=[N+]=[N-])ccc2c2ccc(NC(=O)CCC(=O)OCCOC(=O)CCC(=O)ON3C(=O)CCC3=O)cc21.[Br-]` [B, 8-azido-3-(4-(2-(4-(2,5-dioxopyrrolidin-1-yloxy)-4-oxobutanoyloxy)ethoxy)-4-oxobutanamido)-5-ethyl-6-phenylphenanthridinium bromide], the Activity entry in assay [1] (synthesized compounds: DNA-binding moiety coupled with NHS ester protein-binding moiety) was “Strong”.
`N.N.[Cl][Pt][Cl]` [Cisplatin]: in assay [2], the Activity result is “Strong”.
The same measure, in the same setting: next, `CC[n+]1c(-c2ccccc2)c2cc(N=[N+]=[N-])ccc2c2ccc(N)cc21.[Br-]` [Ethidium bromide monoazide, 3-Amino-8-azido-5-ethyl-6-phenylphenanthridinium bromide]: “Strong”.
On to `O=CCCCC=O` [glutaraldehyde], for which the “Activity as fixative agent” value in assay [1] (additional fixative agents) is given as “some activity”.
As to `O=CC=O` [glyoxal], in assay [1], the “Activity as fixative agent” value is given as “some activity”.
